# Measured values as given in patent US6737383B1, “Herbicidal oxadiazolidines” (priority 1999, dated 2004).
# Tests used:
# giant foxtail = test: Test B pre/postemergence giant foxtail; format: in vivo, Setaria faberii
# Procedure, shortened: (§1)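 Test chemicals in a non-phytotoxic solvent mixture with surfactant were sprayed preemergence onto planted seeds and postemergence onto plants 2 to 18 cm tall (1- to 4-leaf stage). After twelve to sixteen days in a greenhouse, injury was visually rated against untreated controls from 0 (no effect) to 10 (complete control).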
# bamyardgrass = test: Test B flood test barnyardgrass; format: in vivo, Echinochloa crus-galli
# Procedure, shortened: (§2)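 Flood test on plants grown to the 2-leaf stage; treated plants kept in greenhouse twelve to sixteen days, then visually rated against controls on a 0 (no effect) to 10 (complete control) scale.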
# purple nutsedge = test: Test B pre/postemergence purple nutsedge; format: in vivo, Cyperus rotundus
# Procedure, shortened: as §1
# blackgrass = test: Test B pre/postemergence blackgrass; format: in vivo, Alopecurus myosuroides
# Procedure, shortened: as §1
# sugar beet = test: Test B pre/postemergence sugar beet; format: in vivo, Beta vulgaris
# Procedure, shortened: as §1
# pigweed = test: Test B pre/postemergence pigweed; format: in vivo, Amaranthus retroflexus
# Procedure, shortened: as §1
# soybean = test: Test B pre/postemergence soybean; format: in vivo, Glycine max
# Procedure, shortened: as §1
# wheat = test: Test B pre/postemergence wheat; format: in vivo, Triticum aestivum
# Procedure, shortened: as §1
# velvetleaf = test: Test B pre/postemergence velvetleaf; format: in vivo, Abutilon theophrasti
# Procedure, shortened: as §1
# duck salad = test: Test B flood test duck salad; format: in vivo, Heteranthera limosa
# Procedure, shortened: as §2
# wild oat = test: Test B pre/postemergence wild oat; format: in vivo, Avena fatua
# Procedure, shortened: as §1
# smallflower flatsedge = test: Test B flood test smallflower flatsedge; format: in vivo, Cyperus difformis
# Procedure, shortened: as §2
# morningglory = test: Test B pre/postemergence morningglory; format: in vivo, Ipomoea hederacea
# Procedure, shortened: as §1
# bedstraw = test: Test B pre/postemergence bedstraw; format: in vivo, Galium aparine
# Procedure, shortened: as §1
# rice = test: Test B flood test rice; format: in vivo, Oryza sativa
# Procedure, shortened: as §2
# rape = test: Test B pre/postemergence rape; format: in vivo, Brassica napus
# Procedure, shortened: as §1
# [1] = Postemergence, Rate 62 g/ha, scale 0 to 10, 0 is no effect, 10 is complete control
# [2] = Postemergence, Rate 250 g/ha, scale 0 to 10, 0 no effect, 10 complete control
# [3] = Preemergence, Rate 31 g/ha, visual rating, scale 0 to 10 (0 no effect, 10 complete control)
# [4] = Preemergence, Rate 62 g/ha, scale 0 to 10, 0 is no effect, 10 is complete control
# [5] = Preemergence, Rate 125 g/ha, scale 0 to 10 (0 no effect, 10 complete control)
# [6] = Preemergence, Rate 250 g/ha, scale of 0 to 10 where 0 is no effect and 10 is complete control
# [7] = Rate 31 g/ha, Postemergence, scale 0 to 10
# [8] = Rate 125 g/ha, Postemergence, scale 0 to 10, 0 no effect, 10 complete control
# [9] = Rate 125 g/ha, Postemergence section (flood test species), scale 0 to 10, 0 no effect, 10 complete control
# [10] = Rate 500 g/ha, Postemergence section of Table B, 0 to 10 scale (0 no effect, 10 complete control)
# [11] = flood test, listed under Postemergence, Rate 250 g/ha, scale 0 to 10, 0 no effect, 10 complete control
structure (smiles),measurement,setting,value
CCN(C(=O)n1oc(=O)n(-c2ccccc2OC)c1=O)C1CCCCC1 [Compound 29],Giant foxtail plant response rating,giant foxtail; [1],0
same,Giant foxtail plant response rating,giant foxtail; [2],0
same,Giant foxtail plant response rating,giant foxtail; [3],0
same,"Plant response rating, Giant foxtail",giant foxtail; [4],0
same,"Plant response rating, Giant foxtail",giant foxtail; [5],1
same,"Plant response rating, Giant foxtail",giant foxtail; [6],3
same,Giant foxtail plant response rating,giant foxtail; [7],0
same,Giant foxtail plant response rating,giant foxtail; [8],0
same,Barnyardgrass plant response rating,bamyardgrass; [1],0
same,Barnyardgrass plant response rating,bamyardgrass; [9],0
same,Barnyardgrass plant response rating,bamyardgrass; [10],0
same,Barnyardgrass plant response rating,bamyardgrass; [11],0
same,Nutsedge plant response rating,purple nutsedge; [1],0
same,Nutsedge plant response rating,purple nutsedge; [2],0
same,Nutsedge plant response rating,purple nutsedge; [3],0
same,"Plant response rating, Nutsedge",purple nutsedge; [4],0
same,"Plant response rating, Nutsedge",purple nutsedge; [5],0
same,"Plant response rating, Nutsedge",purple nutsedge; [6],0
same,Nutsedge plant response rating,purple nutsedge; [7],0
same,Nutsedge plant response rating,purple nutsedge; [8],0
same,Blackgrass plant response rating,blackgrass; [1],0
same,Blackgrass plant response rating,blackgrass; [2],0
same,Blackgrass plant response rating,blackgrass; [3],0
same,"Plant response rating, Blackgrass",blackgrass; [4],0
same,"Plant response rating, Blackgrass",blackgrass; [5],0
same,"Plant response rating, Blackgrass",blackgrass; [6],2
same,Blackgrass plant response rating,blackgrass; [7],0
same,Blackgrass plant response rating,blackgrass; [8],0
same,Sugarbeets plant response rating,sugar beet; [1],0
same,Sugarbeets plant response rating,sugar beet; [2],0
same,Sugarbeets plant response rating,sugar beet; [3],0
same,"Plant response rating, Sugarbeets",sugar beet; [4],0
same,"Plant response rating, Sugarbeets",sugar beet; [5],0
same,"Plant response rating, Sugarbeets",sugar beet; [6],0
same,Sugarbeets plant response rating,sugar beet; [8],0
same,Redroot pigweed plant response rating,pigweed; [1],0
same,Redroot pigweed plant response rating,pigweed; [2],0
same,Redroot pigweed plant response rating,pigweed; [3],0
same,"Plant response rating, Redroot pigweed",pigweed; [4],0
same,"Plant response rating, Redroot pigweed",pigweed; [5],0
same,"Plant response rating, Redroot pigweed",pigweed; [6],5
same,Redroot pigweed plant response rating,pigweed; [7],0
same,Redroot pigweed plant response rating,pigweed; [8],0
same,Soybean plant response rating,soybean; [1],2
same,Soybean plant response rating,soybean; [2],2
same,Soybean plant response rating,soybean; [3],0
same,"Plant response rating, Soybean",soybean; [4],0
same,"Plant response rating, Soybean",soybean; [5],0
same,"Plant response rating, Soybean",soybean; [6],0
same,Soybean plant response rating,soybean; [8],2
same,Wheat plant response rating,wheat; [1],0
same,Wheat plant response rating,wheat; [2],0
same,Wheat plant response rating,wheat; [3],0
same,"Plant response rating, Wheat",wheat; [4],0
same,"Plant response rating, Wheat",wheat; [5],0
same,"Plant response rating, Wheat",wheat; [6],0
same,Wheat plant response rating,wheat; [8],0
same,Velvetleaf plant response rating,velvetleaf; [1],0
same,Velvetleaf plant response rating,velvetleaf; [2],0
same,Velvetleaf plant response rating,velvetleaf; [3],0
same,"Plant response rating, Velvetleaf",velvetleaf; [4],0
same,"Plant response rating, Velvetleaf",velvetleaf; [5],0
same,"Plant response rating, Velvetleaf",velvetleaf; [6],0
same,Velvetleaf plant response rating,velvetleaf; [8],0
same,Ducksalad plant response rating,duck salad; [1],0
same,Ducksalad plant response rating,duck salad; [9],0
same,Ducksalad plant response rating,duck salad; [10],0
same,Ducksalad plant response rating,duck salad; [11],0
same,Wild oats plant response rating,wild oat; [1],0
same,Wild oats plant response rating,wild oat; [2],0
same,Wild oats plant response rating,wild oat; [3],0
same,"Plant response rating, Wild oats",wild oat; [5],0
same,"Plant response rating, Wild oats",wild oat; [6],0
same,Wild oats plant response rating,wild oat; [8],0
same,S. Flatsedge plant response rating,smallflower flatsedge; [1],0
same,S. Flatsedge plant response rating,smallflower flatsedge; [9],0
same,S. Flatsedge plant response rating,smallflower flatsedge; [11],0
same,Morningglory plant response rating,morningglory; [1],0
same,Morningglory plant response rating,morningglory; [2],0
same,Morningglory plant response rating,morningglory; [3],0
same,"Plant response rating, Morningglory",morningglory; [4],0
same,"Plant response rating, Morningglory",morningglory; [5],0
same,"Plant response rating, Morningglory",morningglory; [6],0
same,Morningglory plant response rating,morningglory; [7],0
same,Morningglory plant response rating,morningglory; [8],0
same,Bedstraw plant response rating,bedstraw; [1],0
same,Bedstraw plant response rating,bedstraw; [2],0
same,Bedstraw plant response rating,bedstraw; [3],0
same,"Plant response rating, Bedstraw",bedstraw; [4],0
same,"Plant response rating, Bedstraw",bedstraw; [5],0
same,"Plant response rating, Bedstraw",bedstraw; [6],0
same,Bedstraw plant response rating,bedstraw; [7],0
same,Bedstraw plant response rating,bedstraw; [8],0
same,Rice plant response rating,rice; [1],0
same,Rice plant response rating,rice; [9],0
same,Rice plant response rating,rice; [10],0
same,Rice plant response rating,rice; [11],0
same,Rape plant response rating,rape; [1],0
same,Rape plant response rating,rape; [2],0
same,Rape plant response rating,rape; [3],0
same,"Plant response rating, Rape",rape; [4],0
same,"Plant response rating, Rape",rape; [5],0
same,"Plant response rating, Rape",rape; [6],0
same,Rape plant response rating,rape; [7],0
same,Rape plant response rating,rape; [8],0
